Experimental findings from patent publication US20100216981A1 (Nippon Soda Co., Ltd., priority 2007, published 2010) are described below.

For series [1], the target named is TAV-2b (Tomato aspermy virus, UniProt Q8UYT3). Description: Surface plasmon resonance (Biacore) inhibition of siRNA binding to TAV-2b. As to conditions: read-out: Binding inhibition rate (%) Biacore TAV2b 25 ppm.
In series [2] the target is synthetic peptide of tat (HIV tat) (Human immunodeficiency virus type 1 group M subtype B, UniProt P04610, P77S). As to the kind of experiment: Gel shift assay, inhibition of siRNA binding to synthetic peptide of tat. To be noted: compound 100 ppm; synthetic peptide of tat 500 nM. In general terms: In EMSA bound probe runs differently from free probe, usually more slowly.

The target of series [3] is PTGS-SP p19 of TBSV (Tomato bushy stunt virus, UniProt P11690). Description: Surface plasmon resonance (Biacore) inhibition of siRNA binding to p19. As to conditions: read-out: Binding inhibition rate (%) Biacore p19 25 ppm.
In series [4] the target is T1, 2b (PTGS suppressor) (Tomato aspermy virus, UniProt Q8UYT3 Q8UYT3:1-95).
T1 sequence: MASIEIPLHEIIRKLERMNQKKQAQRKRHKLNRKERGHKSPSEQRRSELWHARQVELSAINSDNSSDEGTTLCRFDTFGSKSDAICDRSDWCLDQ
Description: SPR; siRNA on SA chip; 10 mM HEPES pH 7.4, 150 mM NaCl, 3 mM EDTA; 2b about 10 ug/ml; free siRNA 0.1 uM competes (positive control); small molecules inhibit binding. As to conditions: tags: FLAG (MBP removed with Factor Xa); label: 3'-biotin on sense strand; siRNA duplex of two 21-mers. (In general: In SPR one partner is held on a chip, and binding of the other changes the refractive index at the surface.)

For series [5], the target named is T2, tat synthetic peptide (arginine-rich portion) (Human immunodeficiency virus, UniProt P69698 SEQ:1-34).
T2 chain: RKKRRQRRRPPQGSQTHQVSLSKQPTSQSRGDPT
Description: EMSA; peptide 500 nM, siRNA 500 uM as printed, 0.005% BSA, 25 C; binding inhibited by small molecules. As to conditions: protein: synthetic; tags: chemically synthesised peptide, Biologica Co., 98% purity; label: 3'-biotin on sense strand; siRNA duplex of two 21-mers.

Series [6] concerns the target T3, p19 (PTGS suppressor) (Tomato bushy stunt virus, UniProt P11690 P11690:1-172).
T3 sequence: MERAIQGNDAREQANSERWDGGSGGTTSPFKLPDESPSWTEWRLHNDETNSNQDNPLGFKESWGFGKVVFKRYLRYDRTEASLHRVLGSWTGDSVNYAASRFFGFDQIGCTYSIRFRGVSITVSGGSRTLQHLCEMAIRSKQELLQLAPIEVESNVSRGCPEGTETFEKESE
As to the kind of experiment: SPR; siRNA on SA chip; 10 mM HEPES pH 7.4, 150 mM NaCl, 3 mM EDTA; p19 about 10 ug/ml; free siRNA 0.1 uM competes (positive control); small molecules inhibit binding. As to conditions: tags: His-tag (pCold I), FLAG; chain copies: 2; label: 3'-biotin on sense strand; siRNA duplex of two 21-mers.

What is called inhibition is the drop in the measured response relative to a control, in per cent. On to `COc1c(OC)c(=O)c1=O` [Compound 1], for which the inhibition at 25 ppm in series [1] and in series [3] was 80% throughout. Besides, in series [2], the “Binding inhibition rate (%) Gel shift tat 100 ppm” value amounted to 10%.
`CC1(C)C(=O)C(C)(C)C1=O` [Compound 2]: the inhibition at 25 ppm in series [1] was 0%; in series [3], 75%.
On the same counts, the results for `CCOC(=O)C1CCCC1=O` (centres unmarked) [Compound 3] are 90% and 0%.
Turning to `CC(=O)C1CCCC1=O` (centres unmarked) [Compound 4], the inhibition at 25 ppm in series [1] worked out at 90%; in series [3] it was 20%.
As to `O=C1C=CC(=O)C1` [Compound 5], the inhibition at 25 ppm in series [1] and in series [3] was 100% throughout. Further, the “Binding inhibition rate (%) Gel shift tat 100 ppm” value in series [2] was determined as 100%.
As to `O=C1CCc2ccccc2C1=O` [Compound 6], the inhibition at 25 ppm in series [1] and in series [3] was 100% each time. Moreover, in series [2], the “Binding inhibition rate (%) Gel shift tat 100 ppm” value is 100%.
In the case of `O=C1CCSC1` [Compound 9], the inhibition at 25 ppm in series [1] was 0%; in series [3], 95%. The “Binding inhibition rate (%) Gel shift tat 100 ppm” value in series [2] amounted to 0%.
`O=C1CCCCC1` [Compound 10]: the inhibition at 25 ppm in series [1] amounted to 50%; in series [3], 70%.
On the same counts, the results for `O=C1CCC(=O)CC1` [Compound 11] are 20% and 70%.
For `O=C1C=CC(=O)C=C1` [Compound 12], the inhibition at 25 ppm amounted to 95% in series [1] and 100% in series [3]. In addition, in series [2], the “Binding inhibition rate (%) Gel shift tat 100 ppm” value came to 100%.
As to `O=C1C=C(Cl)C(=O)C(Cl)=C1` [Compound 13], the “Binding inhibition rate (%) Gel shift tat 100 ppm” value in series [2] is reported as 100%.
Still for that read-out and setting: the same measure for `O=C1C=C(Cl)C(=O)C=C1Cl` [Compound 14]: 100%.
For the molecule `O=C1C=C(O)C(=O)C=C1O` [Compound 15], the inhibition at 25 ppm worked out at 100% in series [1] and 95% in series [3]. Moreover, the “Binding inhibition rate (%) Gel shift tat 100 ppm” value in series [2] was 80%.
On the same counts, the results for `COC1=C(OC)C(=O)C(C)=CC1=O` [Compound 16] are 0%, 80% and 0%.
With `O=c1c(O)c(O)c(=O)c(=O)c1=O` [Compound 17], the results for the inhibition at 25 ppm in series [1] and in series [3] were 90% and 100%, respectively.
As for `NC1=CC(=O)CCC1` [Compound 18], the inhibition at 25 ppm in series [1] is 80%; in series [3] it was 90%. In addition, in series [2], the “Binding inhibition rate (%) Gel shift tat 100 ppm” value was 0%.
`Cc1occc(=O)c1O` [Compound 19]: the inhibition at 25 ppm in series [1] came out at 50%; in series [3] it was 90%. Further, the “Binding inhibition rate (%) Gel shift tat 100 ppm” value in series [2] worked out at 0%.
On the same counts, the results for `O=C1C=CC(=O)c2c(O)ccc(O)c21` [Compound 20] are 80%, 100% and 100%.

B1: biotinylated siRNA 21 bp (dsRNA)
RNA 1: UUGCUCAACAGUAUGGGCAUU
RNA 2: UGCCCAUACUGUUGAGCAAUU
On to B1, for which the binding result in series [4], in series [5] and in series [6] was “binds” in each case.
